{"source": "patent US20240374763A1", "about": "“DIAGNOSIS AND MONITORING USING EXTRADOMAIN-B FIBRONECTIN TARGETED PROBES” (Case Western Reserve University, priority 2020, published 2024)", "key": {"[1]": {"test_system": "PC3-DR tumors", "experiment": "MRMI with MT218, PC3-DR xenografts", "assay_type": "in vivo, mice", "details": "0.04 mmol Gd/kg, 20 min post-injection, p=0.07", "excerpt": "(§1) Xenograft models were established by subcutaneous flank injections in athymic nu/nu mice for the 4 prostate cancer cells and tested with MRMI using 0.04 mmol Gd/kg of MT218."}, "[2]": {"test_system": "MDA-MB-231 tumors", "experiment": "MRMI-mediated monitoring of therapeutic response, MDA-MB-231 tumors", "assay_type": "in vivo, mice", "details": "pretreatment MDA-MB-231 tumors, MT218 0.1 mmol/kg, first 30 min", "procedure": "The targeted MRI contrast agent ZD2-N3-Gd(HP-DO3A) (MT218) was provided by Molecular Theranostics (Cleveland, OH) and was synthesized. MR images of the mice bearing MDA-MB-231 or Hs578T tumors were acquired on a 3T MRS 3000 scanner (MRS Solutions, Surrey, UK) with a mouse short quad coil. T1-weighted images were acquired following intravenous injection of MT218 at dose of 0.1 mmol/kg using a fast spin echo (FSE) axial sequence with respiratory gating (TR=305 ms, TE=11 ms, FA=90°, FOV=40×40 mm, slice thickness=1 mm, slice number=15, Nav=2, matrix=256×256). Images were acquired before and at 10, 20, and 30 min after injection of MT218. MRMI was performed before the treatment and then at week 6 post-nanoparticle treatments for MDA-MB-231 and Hs578T tumors. MRI data and image processing was conducted using FIJI (FIJI is just ImageJ) software. The contrast-to-noise ratios (CNRs) of tumors were calculated as the difference of the mean tumor intensity and the mean muscle intensity divided by the standard deviation of the noise."}, "[3]": {"test_system": "SCC4 tumors", "experiment": "MRMI of OSCC flank xenografts, SCC4", "assay_type": "in vivo, mice", "details": "MT218 0.04 mmol/kg", "procedure": "Animal experiments were performed under an animal protocol approved by the Institutional Animal Care and Use Committee (IACUC) at Case Western Reserve University (CWRU, Cleveland, OH, USA). Female 4-week-old athymic nude mice purchased from the Jackson Laboratory (Bar Harbor, ME, USA) were housed in the Animal Core Facility at CWRU. Anesthetized mice were subcutaneously inoculated in the right flank with 4×10^6 GFP/luciferase-expressing OSCC cells (n=5 per cell line) in 100 μL of a 1:1 mixture of Matrigel HC (Corning) and DPBS. Tumor size was monitored with caliper measurements. After 4 weeks of growth, tumors were sufficiently large for MRI experiments.\nMRI experiments were performed with a 3T MRS-3000 system (MR Solutions, Surrey, UK). […] This protocol was repeated on the same mice 2 days later using the untargeted clinical agent gadoteridol at the clinical dose of 0.10 mmol/kg.\nImages were exported in DICOM format and analyzed using FIJI. Contrast-to-noise ratio (CNR) for each time point was calculated as the difference between the mean tumor intensity and the mean muscle intensity, divided by the standard deviation of noise."}, "[4]": {"test_system": "LNCaP-CXCR2 tumors", "experiment": "MRMI with MT218, LNCaP-CXCR2 xenografts", "assay_type": "in vivo, mice", "details": "0.04 mmol Gd/kg, 20 min post-injection", "excerpt": "as §1"}, "[5]": {"experiment": "Relaxivity measurements", "assay_type": "physicochemical", "procedure": "The T1 and T2 values of MT218 and Gd(HP-DO3A) solutions were determined using a 3T MRS 3000 scanner (MR Solutions, Guildford, UK). Solutions of MT218 were prepared at concentrations of 0, 0.25, 0.5, 1, and 2 mM in DPBS buffer (Gibco, Gaithersburg, MD). T1 values were measured using an inversion recovery-fast low angle shot (IR-FLASH) sequence (i=10 ms, TE=4 ms, FA=8°, echoes/frames=128, FOV=40 mm×40 mm, slice thickness =2 mm, number of averages=1, time delay=4000 ms, sample period=200, matrix=256×128). T2 values were obtained using a multi-echo multi-slice (MEMS) sequence (TE=15 ms, […], echoes=10, FOV: 40 mm×40 mm, slice thickness=1 mm, number of averages=1, matrix=256×192). The r1 and r2 relaxivities were calculated from the slopes of 1/T1 and 1/T2 vs. Gd concentration plots, respectively."}, "[6]": {"test_system": "Capan-1 flank tumor xenografts", "experiment": "MRMI of Capan-1 flank tumor xenografts", "assay_type": "in vivo, mice", "procedure": "For flank xenograft models, 4×10^6 Capan-1 cells suspended in 100 μL of a 6 mg/mL Matrigel (Corning, Corning, NY) solution was injected subcutaneously into the flank of eight-week-old female nu/nu mice. The tumor bearing mice were imaged after tumor volumes exceeded 300 mm^3. For orthotopic intrapancreatic models, the pancreas of four-week-old female nu/nu mice were surgically exposed and 1×10^6 BxPC3-GFP-Luc or PANC-1-GFP-Luc cells suspended in 100 μL of an Matrigel solution (6 mg/mL) was injected into the pancreatic tissue. Prior to imaging, growth of tumor was verified by bioluminescence imaging with intraperitoneal injection of d-luciferin on IVIS Spectrum system (Perkin Elmer, Waltham, MA).\nFlank tumor-bearing mice were anesthetized and a tail vein catheter inserted. MR image acquisition was performed on a 7T Biospin (Bruker, Billerica, MA) preclinical small animal scanner with a volume radiofrequency coil. Axial images were obtained using a multi-spin multi-echo (MSME) MRI sequence (500 ms TR, 8.1 ms TE, 900 FA, 4.50 cm×4.50 cm FOV, 1.50 mm slice thickness, 16 slices, 2 averages, 200×200 matrix, 0.0225×0.0225 cm/pixel resolution). Contrast agents were injected at a dose of 0.1 mmol/kg (100 μL) via the tail vein catheter, followed by a saline flush. Images of the tumors were acquired before contrast and at various time points after contrast administration. Gd(HP-DO3A) was used as a control.\nImage files were exported and analyzed in Horus software. ROIs were drawn in the tumor, liver, kidney, and muscle. Muscle ROIs were taken from muscle, with other structures (liver, kidney, tumor) identified after comparison with published images and comparison with anatomical landmarks or bioluminescent imaging. Size of ROIs drawn for image analysis are summarized in Supplemental Table S1. The contrast-to-noise ratio of the tumor (CNR) was calculated using the following equation, where σ_noise is the standard deviation of intensities from an ROI drawn outside of the mouse body: […]"}, "[7]": {"test_system": "C4-2-DR tumors", "experiment": "MRMI with MT218, C4-2-DR xenografts", "assay_type": "in vivo, mice", "details": "0.04 mmol Gd/kg, 20 min post-injection", "excerpt": "as §1"}}, "note": "No end group written: not given here."}
{"substance": "ZD2-N3-Gd(HP-DO3A) (TVRTSAD; also: conjugated to Gd(HP-DO3A) by click reaction of alkynyl-ZD2 with N3-Gd(HP-DO3A), residue of attachment not given here, Gd complex) [MT218, EDB-FN-targeted MRI contrast agent; ZD2 peptide conjugated to the clinical macrocyclic agent Gd(HP-DO3A)]", "values": [{"measurement": "CNR over the pre-contrast", "setting": "[1]", "value": 1.6, "unit": "fold"}, {"measurement": "signal enhancement vs pre-contrast", "setting": "[2]", "value": "Strong signal enhancement"}, {"measurement": "average maximum enhancement (CNR)", "setting": "[3]", "value": "3.81±0.25"}, {"measurement": "increase of CNR", "setting": "[4]", "value": "~3", "unit": "fold"}, {"measurement": "T1 relaxivity", "setting": "[5]; at 3T (Example 1)", "value": 6.13, "unit": "mM⁻¹ s⁻¹"}, {"measurement": "T1 relaxivity", "setting": "[5]; at 3 T, DPBS buffer", "value": "6.07 ± 1.13", "unit": "mM⁻¹ s⁻¹"}, {"measurement": "T2 relaxivity", "setting": "[5]; at 3 T, DPBS buffer", "value": "8.20 ± 0.18", "unit": "s⁻¹ mM⁻¹"}, {"measurement": "increase of contrast to noise ratio (CNR)", "setting": "[6]; 0.1 mmol/kg, MT218 at 15 minutes post-injection, maintained at least 35 minutes, Gd(HP-DO3A) for the duration of the experiment", "value": 4.84, "unit": "fold"}, {"measurement": "CNR compared to the clinical agent Gd(HP-DO3A)", "setting": "[6]; Capan-1 flank", "value": "273 % CNR of control"}, {"measurement": "increase of CNR", "setting": "[7]", "value": 6, "unit": "fold"}]}
